{
  "source": "PubChem BioAssay AID248",
  "about": "(DTP/NCI, 2004)",
  "test_system": "L1210 leukemia ip in BDF1 mice, survival T/C",
  "assay": "NCI In Vivo Anticancer Drug Screen. Data for tumor model L1210 Leukemia (intraperitoneal) in B6D2F1 (BDF1) mice",
  "settings": "endpoint: mean survival time, higher = longer survival",
  "outline": "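Survival endpoint. Drug-treated group vs vehicle group, expressed as T divided by C. Tumor passaged by transplantation.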",
  "key": {"[1]": {"settings": "dose: 100.0 mg/kg/injection, schedule: Q01DX001 (ip), vehicle: Klucel (hydroxypropylcellulose) (HPC)"}, "[2]": {"settings": "dose: 100.0 mg/kg/injection, schedule: Q01DX009 (ip), vehicle: Klucel (hydroxypropylcellulose) (HPC)"}, "[3]": {"settings": "dose: 200.0 mg/kg/injection, schedule: Q01DX009 (ip), vehicle: Klucel (hydroxypropylcellulose) (HPC)"}, "[4]": {"settings": "dose: 100.0 mg/kg/injection, schedule: Q04DX002 (ip), vehicle: saline with Tween-80"}, "[5]": {"settings": "dose: 200.0 mg/kg/injection, schedule: Q04DX002 (ip), vehicle: saline with Tween-80"}},
  "note": "“And” between values parts separate entries of the source, which are not always exact repeats. Equal entries are not always repeated. Toxic doses and inconclusive results are not listed.",
  "data": [
    {"smiles": "NC1CCCCC1Cl", "note": "(stereo not given)", "values": [
      {"measurement": "T/C", "setting": "dose: 100.0 mg/kg/injection, schedule: Q01DX001 (ip), vehicle: saline", "result": "98 % of control"},
      {"measurement": "T/C", "setting": "dose: 200.0 mg/kg/injection, schedule: Q01DX001 (ip), vehicle: saline", "result": "96 % of control"},
      {"measurement": "T/C", "setting": "dose: 400.0 mg/kg/injection, schedule: Q01DX001 (ip), vehicle: saline", "result": "98 % of control"}
    ]},
    {"smiles": "COC(=O)C1(COC(C)=O)CC1", "values": [
      {"measurement": "T/C", "setting": "dose: 50.0 mg/kg/injection, schedule: Q01DX001 (ip), vehicle: saline with Tween-80", "result": "103 % of control"},
      {"measurement": "T/C", "setting": "dose: 100.0 mg/kg/injection, schedule: Q01DX001 (ip), vehicle: saline with Tween-80", "result": "97 % of control"},
      {"measurement": "T/C", "setting": "dose: 200.0 mg/kg/injection, schedule: Q01DX001 (ip), vehicle: saline with Tween-80", "result": "103 % of control"}
    ]},
    {"smiles": "CCc1ccccc1NC(=O)c1ccccc1Cl", "values": [
      {"measurement": "T/C", "setting": "dose: 100.0 mg/kg/injection, schedule: Q01DX009 (ip), vehicle: other", "result": "97 % of control"},
      {"measurement": "T/C", "setting": "dose: 100.0 mg/kg/injection, schedule: Q04DX003 (ip), vehicle: saline with Tween-80", "result": "102 % of control"},
      {"measurement": "T/C", "setting": "dose: 200.0 mg/kg/injection, schedule: Q01DX009 (ip), vehicle: other", "result": "95 % of control"},
      {"measurement": "T/C", "setting": "dose: 200.0 mg/kg/injection, schedule: Q04DX003 (ip), vehicle: saline with Tween-80", "result": "101 % of control"},
      {"measurement": "T/C", "setting": "dose: 400.0 mg/kg/injection, schedule: Q01DX009 (ip), vehicle: other", "result": "89 % of control"},
      {"measurement": "T/C", "setting": "dose: 400.0 mg/kg/injection, schedule: Q04DX003 (ip), vehicle: saline with Tween-80", "result": "93 % of control"}
    ]},
    {"smiles": "CC(=O)OC1C(COS(=O)(=O)c2ccc(C)cc2)OCOC(COS(=O)(=O)c2ccc(C)cc2)C1OC(C)=O", "note": "(stereo not given)", "values": [
      {"measurement": "T/C", "setting": "[1]", "result": "100 % of control"},
      {"measurement": "T/C", "setting": "dose: 200.0 mg/kg/injection, schedule: Q01DX001 (ip), vehicle: Klucel (hydroxypropylcellulose) (HPC)", "result": "93 % of control"},
      {"measurement": "T/C", "setting": "dose: 400.0 mg/kg/injection, schedule: Q01DX001 (ip), vehicle: Klucel (hydroxypropylcellulose) (HPC)", "result": "90 % of control"}
    ]},
    {"smiles": "COc1ccc2c(c1)sc(/C=C/c1ccc(O)c3ncccc13)[n+]2C", "values": [
      {"measurement": "T/C", "setting": "dose: 75.0 mg/kg/injection, schedule: Q01DX001 (ip), vehicle: saline", "result": "111 % of control"},
      {"measurement": "T/C", "setting": "dose: 150.0 mg/kg/injection, schedule: Q01DX001 (ip), vehicle: saline", "result": "110 % of control"},
      {"measurement": "T/C", "setting": "dose: 300.0 mg/kg/injection, schedule: Q01DX001 (ip), vehicle: saline", "result": "117 % of control"}
    ]},
    {"smiles": "NC(=S)Nc1ccc(Cc2ccc(NC(N)=S)cc2)cc1", "values": [
      {"measurement": "T/C", "setting": "[2]", "result": "98 % of control"},
      {"measurement": "T/C", "setting": "[3]", "result": "91 % of control"},
      {"measurement": "T/C", "setting": "dose: 400.0 mg/kg/injection, schedule: Q01DX009 (ip), vehicle: Klucel (hydroxypropylcellulose) (HPC)", "result": "88 % of control"}
    ]},
    {"smiles": "C=C1C(=O)O[C@H]2C1[C@H](OC(=O)/C(C)=C\\COC(C)=O)C[C@]1(CO1)[C@@H]1[C@H](O)[C@H]3O[C@@]3(C)[C@@H]12", "note": "(stereo not given in full)", "values": [
      {"measurement": "T/C", "setting": "dose: 25.0 mg/kg/injection, schedule: Q04DX002 (ip), vehicle: other", "result": "105 % of control"},
      {"measurement": "T/C", "setting": "dose: 50.0 mg/kg/injection, schedule: Q04DX002 (ip), vehicle: other", "result": "103 % of control"},
      {"measurement": "T/C", "setting": "dose: 100.0 mg/kg/injection, schedule: Q04DX002 (ip), vehicle: other", "result": "97 % of control and 100 % of control"}
    ]},
    {"smiles": "COc1ccc(C(O)c2c(CN3CCCCC3)c3ccccc3n2C)cc1", "note": "(stereo not given)", "values": [
      {"measurement": "T/C", "setting": "[4]", "result": "100 % of control"},
      {"measurement": "T/C", "setting": "[5]", "result": "97 % of control"}
    ]},
    {"smiles": "O=C1CCCC(=O)CCC1", "values": [
      {"measurement": "T/C", "setting": "dose: 50.0 mg/kg/injection, schedule: Q04DX002 (ip), vehicle: saline", "result": "93 % of control"},
      {"measurement": "T/C", "setting": "dose: 100.0 mg/kg/injection, schedule: Q04DX002 (ip), vehicle: saline", "result": "93 % of control"},
      {"measurement": "T/C", "setting": "dose: 200.0 mg/kg/injection, schedule: Q04DX002 (ip), vehicle: saline", "result": "104 % of control"}
    ]},
    {"smiles": "CCOC(=O)Nc1cc2c(c(N)n1)N=C(CN(C)c1ccc(Cl)cc1)CN2", "values": [
      {"measurement": "T/C", "setting": "[1]", "result": "150 % of control and 165 % of control"},
      {"measurement": "T/C", "setting": "dose: 150.0 mg/kg/injection, schedule: Q01DX001 (ip), vehicle: Klucel (hydroxypropylcellulose) (HPC)", "result": "93 % of control"}
    ]},
    {"smiles": "c1ccc(NCc2csc3ccccc23)cc1", "values": [
      {"measurement": "T/C", "setting": "dose: 100.0 mg/kg/injection, schedule: Q01DX001 (ip), vehicle: carboxymethylcellulose (CMC)", "result": "98 % of control"},
      {"measurement": "T/C", "setting": "dose: 200.0 mg/kg/injection, schedule: Q01DX001 (ip), vehicle: carboxymethylcellulose (CMC)", "result": "88 % of control"},
      {"measurement": "T/C", "setting": "dose: 400.0 mg/kg/injection, schedule: Q01DX001 (ip), vehicle: carboxymethylcellulose (CMC)", "result": "98 % of control"}
    ]},
    {"smiles": "CCCCCCCCCCCCC(=O)N(CCCC)CCCC", "values": [
      {"measurement": "T/C", "setting": "dose: 100.0 mg/kg/injection, schedule: Q04DX002 (ip), vehicle: Klucel (hydroxypropylcellulose) (HPC)", "result": "92 % of control"},
      {"measurement": "T/C", "setting": "dose: 200.0 mg/kg/injection, schedule: Q04DX002 (ip), vehicle: Klucel (hydroxypropylcellulose) (HPC)", "result": "96 % of control"},
      {"measurement": "T/C", "setting": "dose: 400.0 mg/kg/injection, schedule: Q04DX002 (ip), vehicle: Klucel (hydroxypropylcellulose) (HPC)", "result": "103 % of control"}
    ]},
    {"smiles": "O=C(O)CC1CC2CCC1C2", "note": "(stereo not given)", "values": [
      {"measurement": "T/C", "setting": "[4]", "result": "87 % of control"},
      {"measurement": "T/C", "setting": "[5]", "result": "97 % of control"},
      {"measurement": "T/C", "setting": "dose: 400.0 mg/kg/injection, schedule: Q04DX002 (ip), vehicle: saline with Tween-80", "result": "87 % of control"}
    ]},
    {"smiles": "CC(=O)Nc1ccc(NC(=O)Nc2cccc(C(F)(F)F)c2)cc1", "values": [
      {"measurement": "T/C", "setting": "[2]", "result": "94 % of control"},
      {"measurement": "T/C", "setting": "[3]", "result": "87 % of control"}
    ]},
    {"smiles": "C[n+]1cccc(C(=O)N/N=C/C=C/c2ccccc2)c1", "values": [
      {"measurement": "T/C", "setting": "dose: 50.0 mg/kg/injection, schedule: Q01DX009 (ip), vehicle: saline with Tween-80", "result": "96 % of control"},
      {"measurement": "T/C", "setting": "dose: 100.0 mg/kg/injection, schedule: Q01DX009 (ip), vehicle: saline with Tween-80", "result": "100 % of control"}
    ]},
    {"smiles": "CCCC[n+]1[nH]oc(=O)c1C(=O)[O-]", "values": [
      {"measurement": "T/C", "setting": "dose: 100.0 mg/kg/injection, schedule: Q04DX003 (ip), vehicle: Klucel (hydroxypropylcellulose) (HPC)", "result": "98 % of control"}
    ]}
  ]
}
